Values of other authors as cited in publication PMC12260505, “First-in-Human Phase I/IIa Study of the First-in-Class CDK2/4/6 Inhibitor PF-06873600 Alone or with Endocrine Therapy in Patients with Breast Cancer” (Clinical Cancer Research, 2025).

Test system: HR+/HER2− mBC, post-ET patient population
Conditions: palbociclib and fulvestrant, PALOMA3; cited from earlier work

CC(=O)c1c(C)c2cnc(Nc3ccc(N4CCNCC4)cn3)nc2n(C2CCCC2)c1=O [palbociclib]
Median PFS: 9.5 months | ORR: 24.6%
